# Reference: patent US20220289753A1, “SHP2 INHIBITORS” (IRBM S.P.A., priority 2019, published 2022)
# Molecular target: T1, SHP-2 enzyme (Met1-Leu525) (Homo sapiens, UniProt Q06124)
# T1 construct: synthetized by Origene, Met1-Leu525, cat #TP750155; purchased Origene TP750155
# T1 sequence (Q06124 1-525): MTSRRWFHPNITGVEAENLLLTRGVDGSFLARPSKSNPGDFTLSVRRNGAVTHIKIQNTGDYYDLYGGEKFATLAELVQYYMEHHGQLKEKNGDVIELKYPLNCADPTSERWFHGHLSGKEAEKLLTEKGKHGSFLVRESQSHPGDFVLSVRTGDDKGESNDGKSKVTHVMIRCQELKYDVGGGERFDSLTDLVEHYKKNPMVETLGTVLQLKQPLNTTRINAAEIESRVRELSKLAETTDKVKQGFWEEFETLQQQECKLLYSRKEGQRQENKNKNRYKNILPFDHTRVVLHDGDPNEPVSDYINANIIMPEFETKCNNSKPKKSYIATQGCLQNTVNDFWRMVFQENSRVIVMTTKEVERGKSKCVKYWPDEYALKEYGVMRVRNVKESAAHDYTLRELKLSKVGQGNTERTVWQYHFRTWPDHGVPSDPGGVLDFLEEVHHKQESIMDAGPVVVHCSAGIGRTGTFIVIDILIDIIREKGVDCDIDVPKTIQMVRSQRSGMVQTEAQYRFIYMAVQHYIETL
# Assay: SHP2 inhibition enzymatic assay (DiFMUP substrate, IRS1 peptide activation)
# Format: biochemical
# Details: SHP2 wt; activated by 500 nM IRS1 peptide; 75 μM DiFMUP substrate
# Protocol: SHP2 Inhibition Enzymatic Assay
# Assay volume of 20 μL/well was assembled in 384 well black polystyrene low-binding microplates (Greiner), using the following buffer: 60 mM HEPES pH 7.2, 75 mM NaCl, 75 mM KCl, 1 mM EDTA pH 8, 0.05% tween-20, 5 mM DTT. The SHP-2 enzyme (synthetized by Origene, Met1-Leu525, cat #TP750155) was used at a final concentration of 0.5 nM.
# Briefly, DMSO serially diluted testing compounds were transferred to the bottom of the assay plate. SHP2 was then added together with the IRS1 peptide. 30 minutes post incubation, the DiFMUP substrate was added to the reaction and incubated 30 min at room temperature. […] The fluorescence was detected by a microplate reader (Envision, PerkinElmer) according to the DiFMUP excitation and emission wavelength. The lower the fluorescence the higher the SHP2 inhibition.
# The percentage inhibition is fitted against the compound dilutions with a four-parameter logistic regression. The inflection point (i.e. the concentration at which half-maximal inhibition is achieved) is the IC50.
row,SMILES,IC50
1,"CC1(N)CCN(c2nc3nc(Sc4ccccc4C#N)cnc3[nH]2)CC1 [Example 23, 2-((2-(4-amino-4-methylpiperidin-1-yl)-1H-imidazo[4,5-b]pyrazin-5-yl)thio)benzonitrile]",< 0.5 µM
2,"CC1(N)CCN(c2nc3nc(Sc4nc5ccccc5c(=O)[nH]4)cnc3[nH]2)CC1 [Example 91, 2-((2-(4-amino-4-methylpiperidin-1-yl)-1H-imidazo[4,5-b]pyrazin-5-yl)thio)quinazolin-4(3H)-one]",0.5 to 3 µM
3,"CS(=O)(=O)NC1CCN(c2nc3nc(Sc4cccnc4C(F)(F)F)cnc3[nH]2)CC1 [Example 40, N-(1-(5-((2-(trifluoromethyl)pyridin-3-yl)thio)-1H-imidazo[4,5-b]pyrazin-2-yl)piperidin-4-yl)methanesulfonamide]",> 3 µM
4,"CC1(N)CCN(c2nc3nc(Sc4ccc(C#N)cc4C(F)(F)F)cnc3[nH]2)CC1 [Example 19, 4-((2-(4-amino-4-methylpiperidin-1-yl)-1H-imidazo[4,5-b]pyrazin-5-yl)thio)-3-(trifluoromethyl)benzonitrile]",< 0.5 µM
5,"OCCN1CCCN(c2nc3nc(Sc4cccnc4C(F)(F)F)cnc3[nH]2)CC1 [Example 79, 2-(4-(5-((2-(trifluoromethyl)pyridin-3-yl)thio)-1H-imidazo[4,5-b]pyrazin-2-yl)-1,4-diazepan-1-yl)ethan-1-ol]",0.5 to 3 µM
6,"FC(F)(F)c1ncccc1Sc1cnc2[nH]c(N3CCC(Cn4ccnc4)CC3)nc2n1 [Example 42, 2-(4-((1H-imidazol-1-yl)methyl)piperidin-1-yl)-5-((2-(trifluoromethyl)pyridin-3-yl)thio)-1H-imidazo[4,5-b]pyrazine]",0.5 to 3 µM
7,"CC1(N)CCN(c2nc3nc(Sc4cccc(C(=O)O)c4)cnc3[nH]2)CC1 [Example 94, 3-((2-(4-amino-4-methylpiperidin-1-yl)-1H-imidazo[4,5-b]pyrazin-5-yl)thio)benzoic acid]",< 0.5 µM
8,"CC(C)=Cc1ccccc1Sc1cnc2[nH]c(N3CCC(C)(N)CC3)nc2n1 [Example 75, 4-methyl-1-(5-((2-(2-methylprop-1-en-1-yl)phenyl)thio)-1H-imidazo[4,5-b]pyrazin-2-yl)piperidin-4-amine]",> 3 µM
9,"CC1(N)CCN(c2nc3nc(Sc4ncnc5ccccc45)cnc3[nH]2)CC1 [Example 101, 4-methyl-1-(5-(quinazolin-4-ylthio)-1H-imidazo[4,5-b]pyrazin-2-yl)piperidin-4-amine]",> 3 µM
10,"COc1ccc2nc(Sc3cnc4[nH]c(N5CCC(C)(N)CC5)nc4n3)ccc2c1 [Example 69, 1-(5-((6-methoxyquinolin-2-yl)thio)-1H-imidazo[4,5-b]pyrazin-2-yl)-4-methylpiperidin-4-amine]",0.5 to 3 µM
11,"Cn1nc(-c2ccc(Sc3cnc4[nH]c(N5CCC(C)(N)CC5)nc4n3)s2)cc1C(F)(F)F [Example 57, 4-methyl-1-(5-((5-(1-methyl-5-(trifluoromethyl)-1H-pyrazol-3-yl)thiophen-2-yl)thio)-1H-imidazo[4,5-b]pyrazin-2-yl)piperidin-4-amine]",> 3 µM
12,"FC(F)(F)c1ncccc1Sc1cnc2[nH]c(NCCc3cn4ccccc4n3)nc2n1 [Example 43, N-(2-(imidazo[1,2-a]pyridin-2-yl)ethyl)-5-((2-(trifluoromethyl)pyridin-3-yl)thio)-1H-imidazo[4,5-b]pyrazin-2-amine]",0.5 to 3 µM
13,"CC1(N)CCN(c2nc3nc(Sc4cc(C(F)(F)F)ccc4Cl)cnc3[nH]2)CC1 [Example 36, 1-(5-((2-chloro-5-(trifluoromethyl)phenyl)thio)-1H-imidazo[4,5-b]pyrazin-2-yl)-4-methylpiperidin-4-amine]",0.5 to 3 µM
14,"CC1(N)CCN(c2nc3ncc(Sc4ccccc4)nc3[nH]2)CC1 [Example 11, 4-methyl-1-(6-(phenylthio)-1H-imidazo[4,5-b]pyrazin-2-yl)piperidin-4-amine]",0.5 to 3 µM
15,"FC(F)(F)c1ncccc1Sc1cnc2[nH]c(NCc3ccn[nH]3)nc2n1 [Example 32, N-((1H-pyrazol-5-yl)methyl)-5-((2-(trifluoromethyl)pyridin-3-yl)thio)-1H-imidazo[4,5-b]pyrazin-2-amine]",> 3 µM
16,"COC(=O)c1ccccc1Sc1cnc2[nH]c(N3CCC(C)(N)CC3)nc2n1 [Example 78, methyl 2-((2-(4-amino-4-methylpiperidin-1-yl)-1H-imidazo[4,5-b]pyrazin-5-yl)thio)benzoate]",0.5 to 3 µM

row,SMILES,IC50
1,"CC1(N)CCN(c2nc3ncc(Sc4csc5cnccc45)nc3[nH]2)CC1 [Example 9, 4-methyl-1-(6-(thieno[2,3-c]pyridin-3-ylthio)-1H-imidazo[4,5-b]pyrazin-2-yl)piperidin-4-amine]",0.5 to 3 µM
2,"CC1(N)CCN(c2nc3ncc(Sc4ccc(C5(C#N)CCC5)cc4)nc3[nH]2)CC1 [Example 29, 1-(4-((2-(4-amino-4-methylpiperidin-1-yl)-1H-imidazo[4,5-b]pyrazin-6-yl)thio)phenyl)cyclobutane-1-carbonitrile]",> 3 µM
3,"CC1(N)CCN(c2nc3nc(Sc4ccnc5ccnn45)cnc3[nH]2)CC1 [Example 104, 4-methyl-1-(5-(pyrazolo[1,5-a]pyrimidin-7-ylthio)-1H-imidazo[4,5-b]pyrazin-2-yl)piperidin-4-amine]",> 3 µM
4,"CC(C)c1ccccc1Sc1cnc2[nH]c(N3CCC(C)(N)CC3)nc2n1 [Example 115, 1-(5-((2-isopropylphenyl)thio)-1H-imidazo[4,5-b]pyrazin-2-yl)-4-methylpiperidin-4-amine]",0.5 to 3 µM
5,CC1(N)CCN(c2nc3nc(Sc4ccnc5c(C(F)(F)F)cccc45)cnc3[nH]2)CC1 [Example 97],0.5 to 3 µM
6,"CC1(N)CCN(c2nc3nc(Sc4cccc5c4COC5)cnc3[nH]2)CC1 [Example 77, 1-(5-((1,3-dihydroisobenzofuran-4-yl)thio)-1H-imidazo[4,5-b]pyrazin-2-yl)-4-methylpiperidin-4-amine]",< 0.5 µM
7,"NC(=O)Cn1c(N2CCC3(CC2)Cc2ccccc2[C@H]3N)nc2nc(Sc3cccnc3C(F)(F)F)cnc21 [Example 137, (S)-2-(2-(1-amino-1,3-dihydrospiro[indene-2,4′-piperidin]-1′-yl)-5-((2-(trifluoromethyl)pyridin-3-yl)thio)-1H-imidazo[4,5-b]pyrazin-1-yl)acetamide]",> 3 µM
8,"CCn1c(N2CCC(C)(N)CC2)nc2ncc(Sc3cccnc3C(F)(F)F)nc21 [Example 72, 1-(1-ethyl-6-((2-(trifluoromethyl)pyridin-3-yl)thio)-1H-imidazo[4,5-b]pyrazin-2-yl)-4-methylpiperidin-4-amine]",> 3 µM
9,"FC(F)(F)c1ncccc1Sc1cnc2[nH]c(N3CCCCC3)nc2n1 [Example 31, 2-(piperidin-1-yl)-5-((2-(trifluoromethyl)pyridin-3-yl)thio)-1H-imidazo[4,5-b]pyrazine]",0.5 to 3 µM
10,"N[C@@H]1CCCC12CCN(c1nc3ncc(N4CCCc5ncccc54)nc3[nH]1)CC2 [Example 120, (R)-8-(6-(3,4-dihydro-1,5-naphthyridin-1(2H)-yl)-1H-imidazo[4,5-b]pyrazin-2-yl)-8-azaspiro[4.5]decan-1-amine]",> 3 µM
11,"Cc1cc(Sc2cnc3[nH]c(N4CCC(C)(N)CC4)nc3n2)c2ccccc2n1 [Example 106, 4-methyl-1-(5-((2-methylquinolin-4-yl)thio)-1H-imidazo[4,5-b]pyrazin-2-yl)piperidin-4-amine]",> 3 µM
12,"CC1(N)CCN(c2nc3nc(Sc4cccnc4C(F)(F)F)cnc3n2CC2CC2)CC1 [Example 13, 1-(1-(cyclopropylmethyl)-5-((2-(trifluoromethyl)pyridin-3-yl)thio)-1H-imidazo[4,5-b]pyrazin-2-yl)-4-methylpiperidin-4-amine]",0.5 to 3 µM
13,"CC(N)C1CN(c2nc3nc(Sc4cccnc4C(F)(F)F)cnc3[nH]2)CCO1 (centres unmarked) [Example 86, 1-(4-(5-((2-(trifluoromethyl)pyridin-3-yl)thio)-1H-imidazo[4,5-b]pyrazin-2-yl)morpholin-2-yl)ethan-1-amine]",0.5 to 3 µM
14,"CC1(N)CCN(c2nc3nc(Sc4ccnc(Br)c4)cnc3[nH]2)CC1 [Example 64, 1-(5-((2-bromopyridin-4-yl)thio)-1H-imidazo[4,5-b]pyrazin-2-yl)-4-methylpiperidin-4-amine]",0.5 to 3 µM
15,"Cn1ncc2cc(Sc3cnc4nc(N5CCC(C)(N)CC5)[nH]c4n3)ccc21 [Example 6, 4-methyl-1-(6-((1-methyl-1H-indazol-5-yl)thio)-1H-imidazo[4,5-b]pyrazin-2-yl)piperidin-4-amine]",0.5 to 3 µM
16,"CC1(N)CCN(c2nc3nc(Sc4cccc5ccncc45)cnc3[nH]2)CC1 [Example 92, 1-(5-(isoquinolin-8-ylthio)-1H-imidazo[4,5-b]pyrazin-2-yl)-4-methylpiperidin-4-amine]",< 0.5 µM
